Reference: article PMC4529246 (PLoS ONE, 2015)
Where two headings read alike, the source gives them in different places.

Assays:
Experiment in all cases: cell-based
system xc- (H4) [1] = target: T1, system xc- (H4) (Homo sapiens, UniProt Q9UPY5); set-up: cystine-induced glutamate release inhibition, 30 min, PBS with Na+; settings: PBS (+Na+), 30 min; read-out: Glutamate Release H4
T1 construct: gene SLC7A11; native endogenous transporter in intact H4 neuroglioma cells
T1 sequence (Q9UPY5 1-501): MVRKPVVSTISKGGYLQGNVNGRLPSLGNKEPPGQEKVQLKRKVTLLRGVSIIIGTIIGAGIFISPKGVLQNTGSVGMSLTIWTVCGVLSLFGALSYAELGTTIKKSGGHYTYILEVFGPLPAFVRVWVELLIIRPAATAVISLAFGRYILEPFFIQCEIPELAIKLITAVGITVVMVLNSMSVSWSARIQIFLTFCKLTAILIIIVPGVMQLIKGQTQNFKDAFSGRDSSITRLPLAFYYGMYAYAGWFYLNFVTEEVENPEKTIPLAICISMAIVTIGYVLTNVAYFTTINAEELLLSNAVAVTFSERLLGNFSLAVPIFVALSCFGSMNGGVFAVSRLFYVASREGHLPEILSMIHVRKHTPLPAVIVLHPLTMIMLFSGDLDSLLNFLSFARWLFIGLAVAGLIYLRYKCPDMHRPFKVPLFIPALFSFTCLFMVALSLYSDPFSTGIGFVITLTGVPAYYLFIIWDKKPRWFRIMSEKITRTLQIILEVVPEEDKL
T1 sequence (P08195 1-529 partner): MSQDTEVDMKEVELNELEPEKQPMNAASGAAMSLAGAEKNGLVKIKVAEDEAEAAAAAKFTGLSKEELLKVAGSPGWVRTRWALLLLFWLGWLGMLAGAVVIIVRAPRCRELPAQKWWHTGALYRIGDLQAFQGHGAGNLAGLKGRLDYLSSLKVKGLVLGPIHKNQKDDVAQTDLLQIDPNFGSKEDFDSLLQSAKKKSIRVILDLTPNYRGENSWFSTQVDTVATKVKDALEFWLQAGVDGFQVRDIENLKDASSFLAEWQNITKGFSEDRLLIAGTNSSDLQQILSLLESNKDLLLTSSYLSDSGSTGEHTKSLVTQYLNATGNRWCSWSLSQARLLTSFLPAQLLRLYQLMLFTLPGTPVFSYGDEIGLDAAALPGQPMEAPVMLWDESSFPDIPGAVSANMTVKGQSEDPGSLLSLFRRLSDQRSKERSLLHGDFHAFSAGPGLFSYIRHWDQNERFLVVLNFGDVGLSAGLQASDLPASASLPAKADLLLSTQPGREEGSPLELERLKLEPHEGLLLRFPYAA
Procedure: Early characterization of the cystine-induced glutamate release assay was carried out in the 96-well format and later adapted to the 384-well format. Briefly, CCF-STTG-1 cells were seeded at 0.04 x 10^6 cells per 96-well and grown to confluence. […] Cells were maintained for 2h at 37°C in an incubator with 5% CO2. At the end of the incubation period, cystine-induced glutamate release was measured directly. The assay was further characterized for the dependence of cystine-induced glutamate release on protein content (mg/ml) and the time of incubation. […] Cells were maintained at 37°C in an incubator with 5% CO2 and the glutamate released over a 2h period measured. Identical protocols were followed for IC50 determinations using UB or PBS with CCF-STTG-1, neuroglioma (H4) or fibroblast (IMR-90) cells. U-87 MG cells were seeded at 0.06 x 10^6 cells per 96-well (in 0.3 ml growth media) and tested on Day2. When running the assay in the 384-well format, CCF-STTG-1 cells were seeded at 0.01 x 10^6 cells per well (in 0.025 ml growth media) and grown to confluence. […] Cells were maintained for 3h at 37°C in an incubator with 5% CO2. At the end of the incubation period, cystine-induced glutamate release was measured directly. […]

system xc- (IMR90) [2] = target: T2, system xc- (IMR90) (Homo sapiens, UniProt Q9UPY5); set-up: species or system IMR-90; cystine-induced glutamate release inhibition, 30 min, PBS with Na+; settings: PBS (+Na+), 30 min; read-out: Glutamate Release IMR90
T2 construct: gene SLC7A11; native endogenous transporter in intact IMR-90 fibroblasts
T2 sequence (Q9UPY5 1-501): T1 sequence (Q9UPY5 1-501)
T2 sequence (P08195 1-529 partner): T1 sequence (P08195 1-529 partner)
Procedure: Early characterization of the cystine-induced glutamate release assay was carried out in the 96-well format and later adapted to the 384-well format. Briefly, CCF-STTG-1 cells were seeded at 0.04 x 10^6 cells per 96-well and grown to confluence. […] Cells were maintained for 2h at 37°C in an incubator with 5% CO2. At the end of the incubation period, cystine-induced glutamate release was measured directly. The assay was further characterized for the dependence of cystine-induced glutamate release on protein content (mg/ml) and the time of incubation. […] Cells were maintained at 37°C in an incubator with 5% CO2 and the glutamate released over a 2h period measured. Identical protocols were followed for IC50 determinations using UB or PBS with CCF-STTG-1, neuroglioma (H4) or fibroblast (IMR-90) cells. U-87 MG cells were seeded at 0.06 x 10^6 cells per 96-well (in 0.3 ml growth media) and tested on Day2. When running the assay in the 384-well format, CCF-STTG-1 cells were seeded at 0.01 x 10^6 cells per well (in 0.025 ml growth media) and grown to confluence. […] Cells were maintained for 3h at 37°C in an incubator with 5% CO2. At the end of the incubation period, cystine-induced glutamate release was measured directly. The rates of [^14C]-cystine influx and cystine-induced glutamate efflux were closely examined using CCF-STTG-1 (grade IV astrocytoma) cells in order to understand the reasons for the lower IC50 values and longer time-dependence in the cystine-induced glutamate release assay. […] The experiments were repeated also using IMR-90 fibroblast cells derived from normal embryonic lung and a second cancer line, the H4 neuroglioma cells. […] (DOCX) Click here for additional data file.

system xc- (H4) [3] = target: T1, system xc- (H4); set-up: [14C]-cystine uptake inhibition, 2 min, PBS with Na+, scintillation counting; settings: PBS (+Na+), 2 min
Procedure: Early characterization work was carried out in a 12-well format and the assay later adapted and characterized in the 96-well format. Briefly, CCF-STTG-1 cells were seeded at 0.04 x 10^6 cells per well in 0.2 ml growth media and grown to confluence. […] After 15 min, uptake was terminated by three washes (115 μl/well) with ice-cold UB. Cells were then lysed with 0.1 N NaOH (100 μl/well) and the radioactivity in the cells measured using scintillant-coated 96-well plates (PerkinElmer: 6005630) and normalized to protein contents. The assay was further characterized for the dependence of ^14C-cystine uptake on protein content (mg/ml) and the time and temperature of incubation. To determine IC50 values, CCF-STTG-1 cells were similarly seeded and grown to confluence. On day 3, transport was initiated upon the addition of pre-warmed (37°C) [^14C]-cystine 80 μM (5.631 μCi/μmol) in Earle’s Balanced Salt Solution (EBSS, Sigma: E3024, contents in mM: NaCl 116.4, NaHCO3 26.2, NaH2PO4 1.02, KCl 5.36, MgSO4 0.81, CaCl2 1.8 and Glucose 5.56, pH 7.4) in the presence and absence of inhibitors. […]

system xc- (IMR90) [4] = target: T2, system xc- (IMR90); set-up: species or system IMR-90; [14C]-cystine uptake inhibition, 2 min, PBS with Na+, scintillation counting; settings: PBS (+Na+), 2 min
Procedure: Early characterization work was carried out in a 12-well format and the assay later adapted and characterized in the 96-well format. Briefly, CCF-STTG-1 cells were seeded at 0.04 x 10^6 cells per well in 0.2 ml growth media and grown to confluence. […] Cells were then lysed with 0.1 N NaOH (100 μl/well) and the radioactivity in the cells measured using scintillant-coated 96-well plates (PerkinElmer: 6005630) and normalized to protein contents. The assay was further characterized for the dependence of ^14C-cystine uptake on protein content (mg/ml) and the time and temperature of incubation. To determine IC50 values, CCF-STTG-1 cells were similarly seeded and grown to confluence. On day 3, transport was initiated upon the addition of pre-warmed (37°C) [^14C]-cystine 80 μM ([…], Sigma: E3024, contents in mM: NaCl 116.4, NaHCO3 26.2, NaH2PO4 1.02, KCl 5.36, MgSO4 0.81, CaCl2 1.8 and Glucose 5.56, pH 7.4) in the presence and absence of inhibitors. […] Identical protocols were followed for IC50 determinations using UB or phosphate buffered saline (PBS; contents in mM: S1 Table) with […] The rates of [^14C]-cystine influx and cystine-induced glutamate efflux were closely examined using CCF-STTG-1 (grade IV astrocytoma) cells in order to understand the reasons for the lower IC50 values and longer time-dependence in the cystine-induced glutamate release assay. […]

IC50 (system xc- (H4) [1]) | IC50 (system xc- (IMR90) [2]) | IC50 (system xc- (H4) [3]) | IC50 (system xc- (IMR90) [4]) | Structure (SMILES)
> 100 µM | > 100 µM | – | – | N[C@@H](C(=O)O)c1ccc(C(=O)O)cc1 [(R)-4CPG]
– | 2 ± 0.4 µM | 20 ± 0.4 µM | – | N[C@H](C(=O)O)c1ccc(C(=O)O)cc1 [(S)-4CPG]
– | 3 ± 0.2 µM | – | – | O=C(O)c1cc(/N=N/c2ccc(S(=O)(=O)Nc3ccccn3)cc2)ccc1O [SAS]
– | – | 200 ± 20 µM | 200 ± 3 µM | N[C@@H](CCC(=O)O)C(=O)O [glutamate]
